Literature values, collected in patent US7718389B2, “Stabilizing composition and stabilizing method of coelenterazine solution for high-throughput measurement of luciferase activity” (National Institute of Advanced Industrial Science and …, priority 2006, dated 2010).

Conditions: background statement

Oc1ccc(Cc2nc3c(Cc4ccccc4)nc(-c4ccc(O)cc4)cn3c2O)cc1 [coelenterazine]
pKa value of proton of an imidazopyrazinone ring: around 7.4
